# Experimental data published in US20250032485A1, “APPLICATION OF IMIDAZO [1,2-A] PYRAZINE COMPOUNDS OR THEIR PHARMACEUTICALLY ACCEPTABLE SALTS IN THE PREPARATION OF ANTI-CORONAVIRUS DRUGS” (GUANGZHOU MEDICAL UNIVERSITY, priority 2023, published 2025).
# Target: PLpro of SARS-CoV-2 (Severe acute respiratory syndrome coronavirus 2, UniProt P0DTD1)
# Experiment: Enzyme activity test in vitro: inhibition of PLpro at fixed concentration 50 μM (RLRGG-AMC substrate)
# Assay type: biochemical
# Details: read-out: Inhibition rate at 50 μM (%)
row,SMILES,inhibition at 50 µM
1,"O=C(O)c1ccc(Nc2c(-c3cccc(Br)c3)nc3cnccn23)cc1 [P18234, 4-[[2-(3-bromophenyl)imidazo[1,2-a]pyrazin-3-yl]amino] benzoic acid]",20.5%
2,"COc1ccc(-c2nc3cnccn3c2Nc2ccc3c(c2)OCO3)cc1OC [P19444, N-(1,3-benzodioxol-5-yl)-2-(3,4-dimethoxy-phenyl)imidazo [1,2-a]pyrazin-3-amine]",42.2%
3,"CN(C)c1ccc(-c2nc3cnccn3c2Nc2cccc(C(=O)O)c2)cc1 [P19447, 3-[[2-[4-(dimethyl-amino)phenyl]imidazo [1,2-a]pyrazin-3-yl]amino]benzoic acid]",42.1%
4,"O=C(O)c1cccc(Nc2c(-c3cccc(Cl)c3)nc3cnccn23)c1 [P19457, 3-[[2-(3-chlorophenyl)imidazo[1,2-a]pyrazin-3-yl]amino] benzoic acid]",39.7%
5,"COc1ccc(-c2nc3cnccn3c2Nc2ccccc2C)cc1OC [P19463, 2-(3,4-dimethoxy-phenyl)-N-(2-methylphenyl)imidazo[1,2-a]pyrazin-3-amine]",40.7%
6,"CNC(=O)c1ccc(Nc2c(-c3ccc(OC)c(OC)c3)nc3cnccn23)cc1 [P19464, 4-[[2-(3,4-dimethoxy-phenyl)imidazo[1,2-a]pyrazin-3-yl]amino]-N-methyl-benzamide]",42.2%
7,"Cc1ccc(-c2nc3cnccn3c2Nc2ccc(C(=O)O)cc2)cc1 [P19465, 4-[[2-(4-methyl-phenyl)imidazo[1,2-a]pyrazin-3-yl]amino] benzoic acid]",15.9%
8,"COC(=O)c1cccc(Nc2c(-c3cc(Br)ccc3O)nc3cnccn23)c1 [P19466, methyl 3-[[2-(5-bromo-2-hydroxyphenyl)imidazo [1,2-a]pyrazin-3-yl]amino]benzoate]",31.9%
9,"O=C(O)c1cccc(Nc2c(-c3cccc(Br)c3)nc3cnccn23)c1 [P19467, 3-[[2-(3-bromophenyl)imidazo[1,2-a]pyrazin-3-yl]amino] benzoic acid]",27.3%
10,"CNC(=O)c1ccc(Nc2c(-c3ccc(OC)cc3)nc3cnccn23)cc1 [P19472, 4-[[2-(4-methoxy-phenyl)imidazo[1,2-a]pyrazin-3-yl]amino]-N-methylbenzamide]",28.1%
11,"COc1ccc(-c2nc3cnccn3c2Nc2ccc(C(C)C)cc2)cc1OC [P19473, 2-(3,4-dimethoxy-phenyl)-N-(4-propan-2-ylphenyl)imidazo [1,2-a]pyrazin-3-amine]",37.5%
12,"CN(C)c1ccc(-c2nc3cnccn3c2Nc2ccc(C(=O)O)cc2)cc1 [P19475, 4-[[2-[4-(dimethyl-amino)phenyl]imidazo [1,2-a]pyrazin-3-yl]amino]benzoic acid]",35.1%
13,"COC(=O)c1cccc(Nc2c(-c3ccccc3)nc3cnccn23)c1 [P19476, methyl 3-[(2-phenylimidazo [1,2-a]pyrazin-3-yl)amino]benzoate]",34%
14,"O=C(O)c1cccc(Nc2c(-c3ccc(F)cc3)nc3cnccn23)c1 [P19477, 3-[[2-(4-fluorophenyl)imidazo[1,2-a]pyrazin-3-yl]amino] benzoic acid]",5.91%
15,"CNC(=O)c1ccc(Nc2c(-c3ccc(C)cc3)nc3cnccn23)cc1 [P19482, N-methyl-4-[[2-(4-methylphenyl)imidazo [1,2-a]pyrazin-3-yl]amino]benzamide]",34.1%
16,"COc1ccc(-c2nc3cnccn3c2Nc2c(C)cccc2C)cc1OC [P19483, 2-(3,4-dimethoxy-phenyl)-N-(2,6-di-methylphenyl)imidazo [1,2-a]pyrazin-3-amine]",37.8%
17,"COC(=O)c1ccc(-c2nc3cnccn3c2Nc2ccc(Cl)cc2)cc1 [P19484, methyl 4-[3-(4-chloroanilino)imidazo[1,2-a]pyrazin-2-yl]benzoate]",42.4%
18,"COC(=O)c1cccc(Nc2c(-c3ccc(OC)cc3)nc3cnccn23)c1 [P19485, methyl 3-[[2-(4-methoxy-phenyl)imidazo[1,2-a]pyrazin-3-yl]amino] benzoate]",36%
19,"COc1ccc(-c2nc3cnccn3c2Nc2cccc(C(=O)O)c2)cc1 [P19486, 3-[[2-(4-methoxy-phenyl)imidazo[1,2-a]pyrazin-3-yl]amino] benzoic acid]",40.1%
20,"O=C(O)c1cccc(Nc2c(-c3cc(Br)ccc3O)nc3cnccn23)c1 [P19487, 3-[[2-(5-bromo-2-hydroxyphenyl)imidazo [1,2-a]pyrazin-3-yl]amino]benzoic acid]",27.3%
21,"NC(=O)c1cccc(Nc2c(-c3ccc(Cl)cc3)nc3cnccn23)c1 [P19492, 3-[[2-(4-chlorophenyl)imidazo[1,2-a]pyrazin-3-yl]amino] benzamide]",35.4%
22,"COc1ccc(Nc2c(-c3ccc(OC)c(OC)c3)nc3cnccn23)cc1 [P19493, 2-(3,4-dimethoxy-phenyl)-N-(4-methoxy-phenyl)imidazo[1,2-a]pyrazin-3-amine]",32.3%
23,"COC(=O)c1ccc(-c2nc3cnccn3c2Nc2cccc(C(=O)OC)c2)cc1 [P19494, methyl 3-[[2-(4-methoxy-carbonylphenyl)imidazo [1,2-a]pyrazin-3-yl]amino]benzoate]",25.4%

row,SMILES,inhibition at 50 µM
1,"COC(=O)c1cccc(Nc2c(-c3ccc(SC)cc3)nc3cnccn23)c1 [P19495, methyl 3-[[2-(4-methyl-sulfanylphenyl)imidazo [1,2-a]pyrazin-3-yl]amino]benzoate]",41.7%
2,"O=C(O)c1cccc(Nc2c(-c3ccc(O)cc3)nc3cnccn23)c1 [P19496, 3-[[2-(4-hydroxy-phenyl)imidazo[1,2-a]pyrazin-3-yl]amino] benzoic acid]",40.5%
3,"O=C(O)c1cccc(Nc2c(-c3ccccc3)nc3cnccn23)c1 [P19497, 3-[(2-phenylimidazo [1,2-a]pyrazin-3-yl)amino]benzoic acid]",31.2%
4,"CSc1ccc(-c2nc3cnccn3c2Nc2cccc(C(N)=O)c2)cc1 [P19502, 3-[[2-(4-methyl-sulfanylphenyl)imidazo [1,2-a]pyrazin-3-yl]amino]benzamide]",39.1%
5,"COc1ccc(-c2nc3cnccn3c2Nc2ccc(Cl)cc2)cc1OC [P19503, N-(4-chlorophenyl)-2-(3,4-dimethoxy-phenyl)imidazo[1,2-a]pyrazin-3-amine]",43.6%
6,"CCOC(=O)c1ccc(Nc2c(-c3ccc(O)cc3)nc3cnccn23)cc1 [P19504, ethyl 4-[[2-(4-hydroxy-phenyl)imidazo[1,2-a]pyrazin-3-yl]amino] benzoate]",32.6%
7,"COC(=O)c1cccc(Nc2c(-c3ccc(O)c(OC)c3)nc3cnccn23)c1 [P19505, methyl 3-[[2-(4-hydroxy-3-methoxyphenyl)imidazo [1,2-a]pyrazin-3-yl]amino]benzoate]",44.7%
8,"COc1cc(-c2nc3cnccn3c2Nc2cccc(C(=O)O)c2)ccc1O [P19506, 3-[[2-(4-hydroxy-3-methoxyphenyl)imidazo [1,2-a]pyrazin-3-yl]amino]benzoic acid]",34%
9,"CNC(=O)c1cccc(Nc2c(-c3ccc(Cl)cc3)nc3cnccn23)c1 [P19512, 3-[[2-(4-chlorophenyl)imidazo[1,2-a]pyrazin-3-yl]amino]-N-methylbenzamide]",41.6%
10,"CCc1cccc(C)c1Nc1c(-c2ccc(OC)c(OC)c2)nc2cnccn12 [P19513, 2-(3,4-dimethoxy-phenyl)-N-(2-ethyl-6-methylphenyl)imidazo [1,2-a]pyrazin-3-amine]",38.8%
11,"COc1ccc(-c2nc3cnccn3c2Nc2ccc(C(=O)O)cc2)cc1 [P19514, 4-[[2-(4-methoxy-phenyl)imidazo[1,2-a]pyrazin-3-yl]amino] benzoic acid]",36%
12,"COC(=O)c1cccc(Nc2c(-c3ccc(C)cc3)nc3cnccn23)c1 [P19515, methyl 3-[[2-(4-methyl-phenyl)imidazo[1,2-a]pyrazin-3-yl]amino] benzoate]",37.1%
13,"O=C(O)c1cccc(Nc2c(-c3ccc(Cl)cc3)nc3cnccn23)c1 [P19516, 3-[[2-(4-chlorophenyl)imidazo[1,2-a]pyrazin-3-yl]amino] benzoic acid]",32.8%
14,"CCNC(=O)c1ccc(Nc2c(-c3ccc(Cl)cc3)nc3cnccn23)cc1 [P22402, 4-[[2-(4-chlorophenyl)imidazo[1,2-a]pyrazin-3-yl]amino]-N-ethylbenzamide]",31.3%
15,"COc1ccc(-c2nc3cnccn3c2Nc2ccc(C(=O)NCCN3CCOCC3)cc2)cc1 [P22403, 4-[[2-(4-methoxy-phenyl)imidazo[1,2-a]pyrazin-3-yl]amino]-N-(2-morpholin-4-ylethyl)benzamide]",31.7%
16,"O=C(NC1CCCCC1)c1ccc(Nc2c(-c3ccccc3)nc3cnccn23)cc1 [P22404, N-cyclohexyl-4-[(2-phenylimidazo[1,2-a]pyrazin-3-yl)amino] benzamide]",26.1%
17,"COc1ccc(-c2nc3cnccn3c2Nc2ccc(C(=O)N3CCOCC3)cc2)cc1 [P22405, [4-[[2-(4-methoxy-phenyl)imidazo[1,2-a]pyrazin-3-yl]amino]phenyl]-morpholin-4-ylmethanone]",36.5%
18,"CN(C)c1ccc(-c2nc3cnccn3c2Nc2cccc(C(N)=O)c2)cc1 [P22406, 3-[[2-[4-(dimethyl-amino)phenyl]imidazo [1,2-a]pyrazin-3-yl]amino]benzamide]",37.2%
19,"CC(C)NC(=O)c1cccc(Nc2c(-c3ccc(Cl)cc3)nc3cnccn23)c1 [P22407, 3-[[2-(4-chlorophenyl)imidazo[1,2-a]pyrazin-3-yl]amino]-N-propan-2-ylbenzamide]",32.6%
20,"O=C(NCC1CCCO1)c1cccc(Nc2c(-c3ccc(Cl)cc3)nc3cnccn23)c1 (stereo not drawn) [P22408, 3-[[2-(4-chlorophenyl)imidazo[1,2-a]pyrazin-3-yl]amino]-N-(oxolan-2-ylmethyl)benzamide]",17.3%
21,"O=C(c1cccc(Nc2c(-c3ccccc3)nc3cnccn23)c1)N1CCOCC1 [P22409, morpholin-4-yl-[3-[(2-phenylimidazo [1,2-a]pyrazin-3-yl)amino]phenyl] methanone]",28.2%
22,"CCNC(=O)c1ccc(Nc2c(-c3ccc(OC)c(OC)c3)nc3cnccn23)cc1 [P22410, 4-[[2-(3,4-dimethoxy-phenyl)imidazo[1,2-a]pyrazin-3-yl]amino]-N-ethylbenzamide]",42.2%
